Test results: patent publication US11932620B1, “Ethyl 2-[9-(6-flouro-2-hydroxyquinolin-3-yl)-1,8-dioxo-3,4,9,10-tetrahydroacridine-10-yl]-acetate as an antimicrobial compound” (KING FAISAL UNIVERSITY, priority 2023, dated 2024)

Legend:
Assay type in all cases: cell-based
Details in all cases: after 10, 20, 40 and 60 minutes at all dilutions 1:100, 1:200, 1:400, 1:800
[1] = test system: Staphylococcus aureus; test: Antimicrobial screening by agar dilution, Staphylococcus aureus
Method: (§1) The antibacterial properties of the synthesized compound ethyl 2-[9-(6-fluoro-2-hydroxyquinolin-3-yl)-1,8-dioxo-3,4,9,10-tetrahydroacridine-10-yl]-acetate were studied by the method of agar dilution. Test solutions of each compound was prepared in concentration of 1% using dimethylformamide as a solvent then they are diluted in physiological solution to obtain the final experimental dilutions 1:100, 1:200, 1:400, 1:800. The effect of these substances are compared with furacillin in a controllable study. The testing microbes used were gram positive bacteria Staphylococcus aureus, gram negative bacteria Pseudomonas aeruginosa and Escherichia coli and Candida albicans fungus. The experiments used for this survey were meat-pentonlu agar (EPA) for cultivation of bacteria and Saburo environment for the fungus. Each experiment used 1 mL of test solution on each plate […]. Two drops of emulsified with microbes feel were added. All experimental samples were taken from the agar after 10, 20, 40, 60 minutes in the environment on the basis of Patrk planted. The bacteria were cultivated at a temperature of 37° C. for 1 day and the mushroom was kept in a thermostat for 2 hours at a temperature of 28° C. Then results were checked. Results of the control (Furacilin) and the antimicrobial activity for the synthesized compounds are listed in are listed in Table 1.

[2] = test system: Escherichia coli; test: Antimicrobial screening by agar dilution, Escherichia coli
Method: as §1

[3] = test system: Pseudomonas aeruginosa; test: Antimicrobial screening by agar dilution, Pseudomonas aeruginosa
Method: as §1

[4] = test system: Candida albicans; test: Antimicrobial screening by agar dilution, Candida albicans
Method: as §1

Measured: inhibition activity (in words)

CCOC(=O)CN1C2=C(C(=O)CCC2)C(c2cc3cc(F)ccc3nc2O)C2=C1CCCC2=O [ethyl 2-[9-(6-fluoro-2-hydroxyquinolin-3-yl)-1,8-dioxo-3,4,9,10-tetrahydroacridine-10-yl]-acetate]
highest inhibition activity: all assays above
